Measured values as given in patent publication US20220401343A1, “ORAL CARE COMPOSITIONS FOR GUM HEALTH” (The Procter & Gamble Company, priority 2020, published 2022).

Assays:
[1] = test system: Primary Human Gingival Fibroblasts (HGF); experiment: Test 1: In-Vitro Human Gingival Fibroblasts Soluble Collagen Assay (Sircol); type: cell-based; details: for increase in collagen productivity vs. base control: Table 7 data, difference to base control
Experimental: Stage 1: Culturing Primary Human Gingival Fibroblasts (“HGF”): Primary Human Gingival Fibroblasts (“HGF”) were collected from tooth extraction patients and washed with 5 mL of PBS (phosphate buffered saline). The tissues were chopped into small pieces and placed into 15 mL centrifuge tube. The samples were digested with equal amounts of 1 mL 8% dispase and 1 mL 6% collagenase for 1 hr at 37° C., during which time the samples need to be shaken every 15 minutes. Once the digestion process was complete, the tube was centrifuged at 1100 r.p.m. for 6 minutes at room temperature. After centrifugation, a pellet of cells was formed in the bottom of the tube separating them from the supernatant solution. Then the supernatant was discarded and the cell pellet was suspended in 3 mL of fresh Minimum Essential Medium (“MEM”, available from Thermo Fisher) culture medium then transferred to a petri dish. The petri dish with cells were placed in the incubator at 37° C. with 5% CO2 for about 10 days. The petri dish was checked for changes in medium color every two days. Fresh culture medium was replaced if changes in medium color occurred.
Stage 2: Treatment with Compositions: Sub-Culturing Human Gingival Fibroblasts: When there was 80-90% cell monolayer coverage of the petri dish, the present culture medium was removed and washed with 5 mL of PBS. 1 mL 0.25% trypsin-EDTA solution was added and the cells sat for about 1-2 minutes at 37° C. until the cells were visibly round-shaped. It was occasionally necessary to tap the petri dish to remove any sticky cells from the petri dish surface. At least 1 mL of fresh MEM culture medium was added to inactivate the trypsin and the cells are collected into a 15 mL centrifuge tube. The tube was then centrifuged at 1100 r.p.m. for 6 minutes at room temperature. The supernatant was discarded and cell pellet is re-suspend-ed in 4 mL of fresh MEM culture medium in the same centrifuge tube. Petri dishes were each placed with 1 mL cell suspension and 9 mL fresh MEM culture medium in the incubator at 37° C. with 5% CO2 for about 3-5 days until 80-90% cell monolayer coverage on the petri dishes was observed.
When there was 80-90% cell monolayer coverage on the petri dishes, cells were re-suspended in 6 mL of fresh MEM culture medium. 1 mL cell suspension and 1 mL fresh MEM culture medium were respectively added into each well of a 6-well plate. The cells were further washed with 2 mL PBS to remove any suspended cells until no suspended cells are visible. […] Cells were maintained in the incubator at 37° C. with 5% CO2 for 72 hours.
Stage 3 Soluble Collagen Assay: Soluble collagen (types I to V) levels were measured by Sircol collagen assay kit (available from Biocolor, UK). After treatment, cells were washed two times with chilled PBS and homogenized with 6M urea. The cell homogenates were centrifuged at 15,000 r.p.m. for 15 min. 100 μL of the supernatant was mixed with 1 mL of Sircol Dye Reagent for 30 minutes. During this time period, a collagen-dye complex formed and precipitated out from the soluble unbound dye. The tubes were transferred to a microcentrifuge and spun at 12,000 r.p.m. for 10 minutes. The tubes were carefully inverted and drained. 750 μL ice-cold Acid-Salt Wash Reagent was gently added to the collagen-dye pellet to remove unbound dye from the surface of the pellet and the inside surface of the microcentrifuge tube. The tube was then centrifuged at 12,000 r.p.m. for 10 minutes. The supernatant was drained into a waste container and any fluid from the lip of the tubes was removed using cotton wool buds. 250 μL of Alkali Reagent was added to each tube to fully release the collagen bound dye. 200 μL of each sample was transferred to individual wells of a 96 micro well plate, keeping a record map of the contents of each well from A1 to H12.

[2] = test system: collagen genes COL1A1 and COL1A2 in skin dermis; experiment: Compound Screening on Skin Dermis: collagen gene expression (microarray) after topical treatment; type: in vivo, human; details: dorsal forearm twice daily, four weeks, vs vehicle, retinol at 0.2%, Pal-KTTKS at 100 ppm, p-value in brackets in the cell
Description: To screen compounds, 30 to 40 female subjects with Fitzpatrick skin types I-III, aged 60-70. At Baseline, each subject was assigned to test each treatment. The products were applied to the dorsal forearm twice daily. Topical treatment with a minimally efficacious moisturizer was used as the vehicle for each test compound and as the negative control.
After four weeks of treatment, one 4-mm punch biopsy was taken from each treated site. The dermis was separated and snap-frozen in liquid nitrogen and stored at −80° C. until assayed. The frozen tissue was then processed for gene expression analysis. To determine gene expression levels, RNA was extracted, labeled with biotin, hybridized and analyzed using Affymetrix GeneTitan® U219 microarray plates according to the manufacturer's instructions.
For genomics analysis, microarray sample quality was assessed using principal components analysis and MA-plots. Treatment to negative control comparisons for the microarray data were assessed using ANOVA models fitted separately for each probe set. ANOVA model hypothesis tests were evaluated using the Empirical Bayes method available in the limma R package. A p-value cutoff of 0.05 or less was consider statistically significant.

[3] = Table 5, 1% composition in culture medium, 72 hours

Molecule | increase in collagen productivity vs. base control [1] | COL1A1 LFC (Log base 2 of the average Fold Change) [2] | COL1A2 LFC (Log base 2 of the average Fold Change) [2] | COL1A1 LFC (Log base 2 of the average Fold Change) ([2]; listed as retinol) | COL1A2 LFC (Log base 2 of the average Fold Change) ([2]; listed as retinol) | Collagen Productivity (Collagen/Cell) [1, 3] | Total Cell Count Cell [1, 3] | Total Collagen ([1]; Table 5, retinoids at 20 ppm in composition, 1% composition in culture medium, 72 hours) [ug/100 ul] | Collagen Productivity (Collagen/Cell) ([1]; Table 6, 1:100 dilution) | Total Cell Count Cell ([1]; Table 6, 1:100 dilution) | Collagen Productivity ([1]; Table 7, 1:100 dilution) [ug per 10^5 cells/100 ul] | Total Cell Count Cell ([1]; Table 7, 1:100 dilution) | Total Collagen ([1]; Table 7, 1:100 dilution) [ug/100 ul] | Collagen Productivity (Collagen/Cell) ([1]; Table 9, 1:50 dilution) | Total Cell Count Cell ([1]; Table 9, 1:50 dilution) | Total Collagen ([1]; Table 9, 1:50 dilution) [ug/100 ul]
CC1=C(/C=C/C(C)=C/C=C/C(C)=C/CO)C(C)(C)CCC1 [Retinol, retinol] | 0.30 | −0.10 (0.93) | −0.022 (0.88) | did not demonstrate significant regulation | did not demonstrate significant regulation | – | – | – | – | – | – | – | – | – | – | –
TGF-B | – | – | – | – | – | 5.17 | 2.60 ×10^5 | 13.44 | 4.86 | 2.72 ×10^5 | 4.86 | 2.72 ×10^5 | 13.24 | 5.17 | 2.60 ×10^5 | 13.44
palmitoyl-lys-thr-thr-lys-ser [Pal-KTTKS] | 0.24 | – | – | – | – | – | – | – | – | – | – | – | – | – | – | –
